{
  "source": "patent US9737622B2",
  "about": "“Compounds modulators of VEGF activity and uses thereof” (ADVANCED ACCELERATOR APPLICATIONS S.A., priority 2009, dated 2017)",
  "key": {"[1]": {"system": "HUVEC cells", "test": "Cell proliferation assay (CyQUANT NF)", "assay_type": "cell-based, human", "method": "HUVEC cells were plated at density of 1200 cells/well in 96-well poly-D-lysine-coated microplates (Becton Dickinson, Franklin Lakes, N.J. USA). After 24 hours incubation in starvation medium (EBM-2, heparin 0.1%, BSA 0.1%), cells were treated with VEGF165 25 ng/ml (R & D Systems, Minneapolis, Minn., USA), with Pep #3 (10-25-50-100 ng/ml) or Pep RND (100 ng/ml). Cell proliferation was determined by using CyQUANT® NF Cell Proliferation Assay Kit (Molecular Probes, Invitrogen S.R.L., Milano, Italy) at 24, 48 and 72 hour after treatment. CyQUANT® NF assay is based on cellular DNA content measurement via fluorescent dye binding. Because cellular DNA content is highly regulated, it is closely proportional to cell number. Briefly, medium was removed and cells incubated with CyQUANT NF reagent for 1 hour at 37° C. according to the manufacturer's instructions. Plates were then analyzed by using a microplate reader (L55 Luminescence Spectometrer Perkin Elmer Instruments) (excitation: 485 nm, emission: 520 nm).\nTo evaluate whether peptide #3 induces cellular proliferation, a cell proliferation assay was performed on HUVEC cells treated, in serum deprivation conditions, with pep #3 (10-25-50-100 ng/ml) or Pep RND (100 ng/ml). After 24, 48 and 72 hours of treatment cell proliferation was measured by CyQUANT® NF Cell Proliferation Assay Kit. […] This effect is evident at 24, 48 and 72 hours. […]"}, "[2]": {"system": "RB protein", "test": "Western blot of RB phosphorylation in HUVEC", "assay_type": "cell-based, human", "conditions": "24 hours, Pep #3 10-100 ng/ml, VEGF165 25 ng/ml, Pep RND 100 ng/ml", "method": "FIG. 3—A) HUVEC cells were incubated in starvation medium (EBM-2, 0.1% heparin, 0.1% BSA) alone or in presence of VEGF165 (25 ng/ml) or with indicated concentrations of Pep #3 or Pep RND (100 ng/ml), for 24, 48 and 72 hours at 37° C. in 5% CO2 atmosphere. Cells were then incubated with CyQUANT® NF reagent for 1 hour at 37° C. and fluorescence intensities of quadruplicate samples were measured with a fluorescence microplate reader using excitation at 485 nm and fluorescence detection at 530 nm. In graph values are calculated as % of proliferating cells compared to controls (untreated cells) at 24, 48 and 72 hours. B) ERK1/2 phosphorylation and phospho-RB was evaluated at 24 hr after stimulation with Pep #3 (10-25-50 and 100 ng/ml), VEGF165 (25 ng/ml) and Pep RND (100 ng/ml). Anti-ERK1/2 and anti-GAPDH antibodies were used as loading control\nAs a marker of cell proliferation, the RB phosphorylation status was also checked in the same experimental conditions. RB protein, in fact, is able to regulate proliferation by controlling cell cycle progression through the restriction point within the G1 and S phases."}, "[3]": {"system": "ERK1/2", "test": "Western blot of phospho ERK1/2 in HUVEC", "assay_type": "cell-based, human", "method": "Cells were plated in 12-well dishes at 1×10^5 cells/cm^2. On the next day, cells were treated, in starvation medium (EBM-2, heparin 0.1%, BSA 0.1%) with Pep #3 (25-100 ng/ml) or Pep RND (100 ng/ml) peptides for 15 min and 30 min at 37° C. VEGF165 (R & D Systems, Minneapolis, Minn., USA) 25 ng/ml was used as positive control. After treatment, whole cell lysates were obtained by using RIPA lysis buffer (Tris 50 mM pH 7.5, NaCl 150 mM, NP-40 1%, EGTA 1 mM, SDS 0.05%) supplemented with Complete Protease Inhibitors and Phosphate Inhibitors (Pierce Biotechnology, Rockford, Ill.). Cell proteins were then collected after centrifugation and protein content was determined by Bradford method (Bio-Rad, Hercules, Calif.). Proteins were separated by electrophoresis on SDS-polyacrylamide gels and transferred to nitrocellulose membrane (Millipore Corp., Bedford, Mass.) by semi-dry electroblotting (Transblot; Bio-Rad Laboratories, Hercules, Calif.).\nThe serine-tyrosine-phosphorilated ERK1/2 (polyclonal antibody, Cell Signaling Technology, Inc. Danvers, Mass., USA) and aGAPDH (monoclonal antibody 6C5, Santa Cruz Biotechnology, Inc., Santa Cruz, Calif.) were visualized by specific antibodies, anti-rabbit and anti-mouse horseradish peroxidase-conjugated secondary antibody (Jackson Immunoresearch Laboratories, Inc, Baltimor Pike; Pa., USA) standard chemiluminescence (Pierce Biotechnology, Rockford, Ill.).\nVEGF-modulated angiogenesis is largely ERK1/2-dependent, leading to DNA synthesis and cell proliferation. […] The authors therefore investigated whether peptide #3 could also induce ERK and AKT activation like VEGF. […] Scrambled Pep-RND had no effect on ERK1/2 and AKT activation, proving that it is unable to activate intracellular signaling (FIG. 2A)."}, "[4]": {"system": "AKT", "test": "Western blot of phospho AKT in HUVEC", "assay_type": "cell-based, human", "conditions": "serum deprivation, 15 and 30 min, peptide #3 25-100 ng/ml, Pep-RND 100 ng/ml", "method": "Cells were plated in 12-well dishes at 1×10^5 cells/cm^2. On the next day, cells were treated, in starvation medium (EBM-2, heparin 0.1%, BSA 0.1%) with Pep #3 (25-100 ng/ml) or Pep RND (100 ng/ml) peptides for 15 min and 30 min at 37° C. VEGF165 (R & D Systems, Minneapolis, Minn., USA) 25 ng/ml was used as positive control. After treatment, whole cell lysates were obtained by using RIPA lysis buffer (Tris 50 mM pH 7.5, NaCl 150 mM, NP-40 1%, EGTA 1 mM, SDS 0.05%) supplemented with Complete Protease Inhibitors and Phosphate Inhibitors (Pierce Biotechnology, Rockford, Ill.). Cell proteins were then collected after centrifugation and protein content was determined by Bradford method (Bio-Rad, Hercules, Calif.). Proteins were separated by electrophoresis on SDS-polyacrylamide gels and transferred to nitrocellulose membrane (Millipore Corp., Bedford, Mass.) by semi-dry electroblotting (Transblot; Bio-Rad Laboratories, Hercules, Calif.). […]"}, "[5]": {"system": "VEGF receptors", "test": "Biological and in vivo assays, summary of angiogenic activity", "conditions": "summary statement", "excerpt": "The compounds have application in diagnosis and treatment of pathologies depending on angiogenesis, especially they can be used in therapy of […]."}, "[6]": {"system": "HUVEC cells", "test": "Caspase 3 fluorimetric assay in serum-starved HUVEC", "assay_type": "cell-based, human", "conditions": "for effect of VEGF on caspase-3 activity (rescue) when peptide is added: in presence of VEGF, 8 hours", "method": "Determination of caspase-3 activity was performed by a fluorometric assay based on the proteolytic cleavage of the AMC-derived substrate N-acetil-DEVD-AMC, which yields a fluorescent product.\nHUVEC cells were plated in 6-well dishes at 1×10^5 cells/cm^2. On the next day, cells were treated, in starvation medium (EBM-2, heparin 0.1%, BSA 0.1%), with Pep #3 (25-100 ng/ml) or scrambled Pep RND (100 ng/ml) peptides for 8 h at 37° C. VEGF165 (R & D Systems, Minneapolis, Minn., USA), 25 ng/ml, was used as positive control.\nAfter 8 h the cells were processed with 150 μl of Caspase-3 reaction buffer (HEPES pH 7.5 50 mM, EDTA 0.1 mM, NP-40 0.1%, CHAPS 0.1%, DTT 1 mM) and cell proteins collected after centrifugation at 13000 rpm for 15 min at 4° C. Protein concentrations were determined by Bradford method (Bio-Rad, Hercules, Calif.) and 20 μg of lysates were incubated in 96-well plates with 20 μM N-acetil-DEVD-AMC at 37° C. for 3 h.\nSamples were analyzed using a microplate reader (L55 Luminescence Spectometrer Perkin Elmer Instruments) (excitation: 360 nm, emission: 440 nm).\nTo investigate the biological activity of the designed peptides the authors analyzed the activation of caspase 3 in human primary endothelial (HUVEC) cells serum-deprived by means of a caspase-3 fluorimetric assay. It is well known that VEGF act as survival factor for ECs. […] Experiments were performed on serum starved HUVEC treated with designed peptides in presence or absence of VEGF in order to highlight an antagonist or agonist (VEGF-like) activity respectively. The biological activity of the analyzed compounds is reported as percentage of VEGF rescue (FIG. 1). The decrease of the caspase-3 activity following VEGF incubation is set to 100% rescue."}, "[7]": {"system": "blood vessel development", "test": "Directed In Vivo Angiogenesis Angioreactor (DIVAA)", "set-up": "species or system CD1 mice", "conditions": "mice, 21 days", "method": "Female CD1 mice (20-25 g) were supplied by Charles-River (Italy) and kept in temperature- and humidity-controlled rooms (22° C., 50%) with lights on from 07:00 to 19:00 h, water and food available ad libitum. All procedures were carried out in accordance with the Italian law (Legislative Decree no. 116, 27 Jan. 1992), which acknowledges the European Directive 86/609/EEC, and were fully compliant with GlaxoSmithKline policy on the care and use of laboratory animal and codes of practice. Furthermore, all efforts were made to minimize the number of animals used and their suffering.\nSterile silicone cylinders closed at one end, called angioreactors (Cultrex, Trevigen, Inc. Helgerman Conn., Gaithersburg), were filled with 20 μL of basement membrane extract (BME) premixed with or without angiogenesis factors (VEGF, FGF) to obtain positive and negative controls respectively. […]\nVessel formation evaluation was performed after 21 days. […] Subsequently, cells were incubated with FITC-Lectin reagent (available in the kit) and then observed by fluorescence microscope (ZEISS, German).\nPro-angiogenic peptide #3 activity was also assayed in an in vivo test using DIVAA (Directed in Vivo Angiogenesis Angioreactor). DIVAA test is performed by implanting angioreactors into the dorsal flank of mice; this allows a quantitative assessment of blood vessel development. […]"}},
  "note": "“Also recorded” adds a separate entry of the source. Bridge positions count the residues as written; N and C are the ends. Ends that are not written are not given here.",
  "data": [
    {"sequence": "KQLLWIRSGDRPWYYTS (prepared by chemical synthesis) [Peptide #3]", "values": [
      {"measurement": "cell proliferation at 25 and 50 ng/ml", "setting": "[1]; 25 and 50 ng/ml, 48 and 72 hours", "result": "Considerable effects"},
      {"measurement": "cell proliferation", "setting": "[1]; serum deprivation, 24, 48 and 72 hours, pep #3 10-25-50-100 ng/ml, Pep RND 100 ng/ml", "result": "able to induce, in a dose dependent manner, cell proliferation"},
      {"measurement": "RB phosphorylation", "setting": "[2]", "result": "enhanced RB phosphorylation"},
      {"measurement": "ERK1/2 activation after 24 hours of treatment", "setting": "[3]; HUVEC, 24 hours, Pep #3 10-100 ng/ml, VEGF165 25 ng/ml", "result": "confirmed ERK1/2 activation"},
      {"measurement": "ERK1/2 activation (phospho ERK1/2)", "setting": "[3]; HUVEC, serum deprivation, 15 and 30 min, peptide #3 25-100 ng/ml, Pep-RND 100 ng/ml", "result": "displayed ERK1/2 and AKT activation"},
      {"measurement": "AKT activation (phospho AKT)", "setting": "[4]", "result": "displayed ERK1/2 and AKT activation"},
      {"measurement": "angiogenic biological activity (pro- or anti-)", "setting": "[5]", "result": "proangiogenic biological activity"},
      {"measurement": "caspase-3 activity (rescue from apoptosis)", "setting": "[6]; 8 hour, without added VEGF, peptide #3 25 ng/ml and 100 ng/ml, vs untreated and Pep-RND-treated cells", "result": "significantly decreased"},
      {"measurement": "induction of new vessel formation with respect to negative controls", "setting": "[7]; 100 ng/ml, FITC-lectin positive cells", "result": 3.8, "unit": "fold"},
      {"measurement": "blood vessels development / new vessel formation in angioreactors", "setting": "[7]; subcutaneous angioreactors, peptide #3 100 ng/ml", "result": "Blood vessels development was observed; also recorded: new vessel formation was observed"}
    ]},
    {"sequence": "KQIMWIKPHQGQWIYTS (prepared by chemical synthesis) [compound 1]", "values": [
      {"measurement": "angiogenic biological activity (pro- or anti-)", "setting": "[5]", "result": "antiangiogenic activity"}
    ]},
    {"sequence": "KQCLWIRSGDRPWYCTS (disulfide 3-15 (inferred)) [Peptide #4]", "values": [
      {"measurement": "ERK 1/2 activation of VEGF stimulated HUVE cells", "setting": "[3]; 100 ng/mL, 30 min, VEGF 25 ng/ml", "result": "dramatically reduces"},
      {"measurement": "biological effect (ERK1/2 activation) on untreated HUVE cells", "setting": "[3]; 100 ng/mL, 30 min, no VEGF", "result": "does not show any biological effect"},
      {"measurement": "angiogenic biological activity (pro- or anti-)", "setting": "[5]", "result": "antiangiogenic activity"},
      {"measurement": "effect of VEGF on caspase-3 activity (rescue) when peptide is added", "setting": "[6]", "result": "partially abolished"}
    ]},
    {"sequence": "KQCMWIKPHQGQWTCTS (disulfide 3-15 (inferred)) [compound 2]", "values": [
      {"measurement": "angiogenic biological activity (pro- or anti-)", "setting": "[5]", "result": "antiangiogenic activity"},
      {"measurement": "effect of VEGF on caspase-3 activity (rescue) when peptide is added", "setting": "[6]", "result": "partially abolished"}
    ]}
  ]
}
